In article PMC10117637 (Frontiers in Pharmacology, 2023):

Key:
[1] = system: Caco-2 cells; experiment: Cell viability assay (MTT), nontoxic concentration; assay type: cell-based, human; settings: 48 h
Method: The cytotoxicity of EDM and DEDM was assessed in Caco-2 cells using the aforementioned MTT test. These alkaloids were produced as solutions in DMSO and then diluted in cell culture media. Inoculating Caco-2 cells (1 × 10^4cells/well) in 96-well plates with 200 μL of media. After additional 48 h of incubation with EDM and DEDM (final test alkaloids concentrations ranged from 0.4 to 200 μM, and DMSO was less than 0.05%), the medium was discarded. To each well, an aliquot of 190 μL freshly prepared DMEM (serum-free) having 10.0 μL MTT (5 mg/mL) was added. The medium in every well was then removed from the plate after a further 4 h at 37°C of incubation. In 100 μL of DMSO, the purple formazan product was dissolved. Using a microplate reader, the ratio of absorbance (treated to untreated cells) at 490 nm was employed to measure cell viability.

[2] = system: Caco-2 cell monolayers; experiment: Caco-2 cell transport assay (Papp, efflux ratio); settings: Caco-2 monolayers
Method: (§1) The Center of Cellular Resources at the Chinese Academy of Sciences (Shanghai, China) provided the human colon adenocarcinoma cell line Caco-2, and the experiment utilized 15–30 generations of these cells. DMEM enriched with 15% FBS, 1% non-essential amino acids, 1% Penicillin-Streptomycin Solution (×100), and 1% sodium pyruvate was utilized to cultivate cells at 37°C in a humidified atmosphere of 5% CO2. The cells were separated from flasks when they achieved the anticipated confluence threshold (70%–80%), and they were then inoculated in 12-well plates at a density of 2–5 × 10^5 cells/cm^2 in a polycarbonate Transwell® (pore size: 0.4 µm; filter area: 1.12 cm^2). In the first week, the culture media was switched every 2 days.
(§2) Caco-2 monolayers were pre-cultured in HBSS for 15 min at 37°C after being rinsed two times with preheated Hanks' balanced salt solution (HBSS, pH = 7.4). The donor side was supplemented with DEDM (25, 50, and 100 μM) and EDM (2.5, 5, and 10 μM), and the receiver chamber was filled with the corresponding volume of HBSS medium. For 120 min, the plate was incubated at 37°C. At 0, 30, 45, 60, 90, and 120 min, a 0.5 mL aliquot of each receiver chamber’s sample was taken, and 0.5 mL of HBSS was added to keep the volume constant. By using high-performance liquid chromatography (HPLC), the samples were examined. The sample (300 μL) taken from the receiver chamber was mixed with 300 μL of acetonitrile, and the combination was centrifuged for 10 min at 13,000 rpm. Lastly, a 100 µL aliquot of the supernatant was injected into the HPLC for examination.
(§3) Two drugs were quantitatively determined using an Agilent 1,260 HPLC apparatus (United States). A C18 column (1.8 μm, 3.0 × 150 mm; Agilent Technologies, Santa Clara, CA, United States) was used for the separation, with a column temperature of 25°C. The mobile phase comprised both A (water) and B (acetonitrile). The ratio between A and B was 70: 30 with a flow rate of 1 mL per minute. For EDM or DEDM, 20 μL samples were injected and analyzed at 290 nm or 344 nm, respectively. Acetonitrile was used to create the standard stock solutions for EDM and DEDM, respectively. By serially diluting standard stock solutions with HBSS, working solutions were made. The effective concentrations were 0.04–2.5 μg/mL for EDM and 0.23–7.5 μg/mL for DEDM, respectively. These samples were stored at 4°C before being used.
(§4) Eqs 1, 2 were used to determine the apparent permeability coefficients (Papp) and efflux ratio (ER) of marker drugs: Papp=dQ/dtC0A (1) where dQ/dt is the cumulative transport rate (M/min), C0 is the initial concentration of each marker drug, and A is the surface area of the filters. ER=PappBL−AP/PappAP−BL (2)
(§5) Data for transport experiments are presented as the mean ± SD of six independent experiments.

[3] = in vitro; settings: human, Caco-2, pH 7.4
Method: as §1, §2, §3, §4, §5

[4] = parameters: method as in Lin et al., 2012; settings: ref Lin et al., 2012; cited from earlier work
[5] = Tissue distribution and PK after tail vein injection; assay type: in vivo, mice
Method: The mixture was then transferred to a sterile centrifuge tube after being repeatedly ground for 30 min with a tiny amount of ordinary saline added. After that, saline was added and ultrasonically processed for 1 h. In a vacuum freeze drier, the suspension was freeze-dried for 30 h. To make the injection, the freeze-dried powder was ultimately redissolved in regular saline. After acclimatization, all mice were acclimated before being randomly placed into four groups of three each: EDM (H) group, EDM (L) group, DEDM (H) group, DEDM (L) group. […] Supernatant plasma from the collected sample was transferred into another tube and kept at −80°C until analysis after being centrifuged at 3,000 rpm for 10 min. Immediately after blood was obtained, the mice were dissected. Saline was injected into the heart until the liver turned white. […] The calibration standards, tissue samples, and plasma samples were pretreated with acetonitrile for protein precipitation. […] To remove the denatured protein, the mixture was vortexed for 1 min and then centrifuged at 16,500 rpm for 10 min. The supernatant was finally injected into the LC-MS/MS in an aliquot of 100 µL for analysis. […] Using an isocratic elution, the EDM and DEDM were analyzed. […] With a flow rate of 0.3 mL/min, the ratio between A and B was 20: 80 for 4 min. The column temperature was kept at 35°C. Prior to injection, samples were transferred in an auto-sampler at a temperature of 4°C and 5 µL was the injection volume. […] The ion source was electrospray ionization (ESI) and adopts positive ion mode. The scan mode was multiple reaction monitoring (MRM). The operating conditions for the EDM and DEDM were 4000 V capillary voltage. […] Acetonitrile was used to prepare standard stock solutions for each type of EDM and DEDM individually. By diluting the standard stock solutions serially with acetonitrile, working standards for the EDM and DEDM were made. The calibration curve samples were acquired by spiking the series working standard solutions (10 μL) into a tube and evaporating the solvent, and then adding blank mouse tissue homogenate or plasma (100 μL). […] DEDM is used as an internal standard compound when detecting EDM. Meanwhile, when DEDM is detected, EDM is used as the internal standard compound. The final concentration of the internal standard compound is 10 ng/mL. […] For the Non-compartmental PK analysis, Thermo Kinetica (Version 5.0, Thermo Electron Corporation, Waltham, MA) was employed. Based on observed data, the time when the maximum tissue concentration was reached (Tmax) and the maximum tissue concentration (Cmax) were assessed. […] Additionally, the mean residence time (MRT) was computed. PK parameters are reported as the mean of […]. Linear and non-linear regressions were analyzed in Microsoft Excel 2016® (United States).

[6] = system: Caco-2 cell monolayers; settings: pH 7.4
Method: as §1, §2, §3, §4, §5

Papp at 120 min [3] [×10⁻⁶ cm/s] | SMILES | Nontoxic concentration ([1]; human) [µM] | bidirectional transport comparison, secretory (basolateral→apical) vs absorptive (apical→basolateral) permeability [2] | oral bioavailability [4] [%] | AUC0-t ([5]; Kindy, 10 mg/kg tail vein, mice, average) [µg·h/g] | time to maximum plasma concentration (Cmax) ([5]; mouse, in vivo) [min] | Tmax ([5]; mouse, in vivo, iv, 5 mg/kg) [min] | Tmax ([5]; mouse, in vivo, iv, 10 mg/kg, Tmax) [min] | half-life ([5]; mouse, in vivo, iv, Lung, 5 mg/kg tail vein, mice, average) [min] | Tmax ([5]; mouse, in vivo, time to peak concentration in different tissues) [min] | permeability class ([2]; from Papp level) | Nontoxic concentration ([1]; Caco-2 cells, MTT) [µM] | Papp [6] [×10⁻⁶ cm/s]
≥ 1 | O=c1c2ccccc2nc2n1CCc1c-2[nH]c2ccccc12 [RUP, rutaecarpine] | 100 | more than twice as high in the secretory direction |  |  |  |  |  |  |  |  |  | 
~10 | COc1ccc2c(OC)c3ccoc3nc2c1 [EVT, evolitrine] | 100 | nearly comparable |  |  |  |  |  |  |  |  |  | 
 | O=c1c2cccc(O)c2nc2n1CCc1c-2[nH]c2ccccc12 [1-HRUP, 1-hydroxyrutaecarpine] |  | nearly comparable |  |  |  |  |  |  |  |  | 100 | ≥ 1

SMILES | Papp at 120 min [3] [×10⁻⁶ cm/s] | Nontoxic concentration ([1]; human) [µM] | bidirectional transport comparison, secretory (basolateral→apical) vs absorptive (apical→basolateral) permeability [2] | oral bioavailability [4] [%] | AUC0-t ([5]; Kindy, 10 mg/kg tail vein, mice, average) [µg·h/g] | time to maximum plasma concentration (Cmax) ([5]; mouse, in vivo) [min] | Tmax ([5]; mouse, in vivo, iv, 5 mg/kg) [min] | Tmax ([5]; mouse, in vivo, iv, 10 mg/kg, Tmax) [min] | half-life ([5]; mouse, in vivo, iv, Lung, 5 mg/kg tail vein, mice, average) [min] | Tmax ([5]; mouse, in vivo, time to peak concentration in different tissues) [min] | permeability class ([2]; from Papp level) | Nontoxic concentration ([1]; Caco-2 cells, MTT) [µM] | Papp [6] [×10⁻⁶ cm/s]
C[n+]1c2n(c(=O)c3ccccc31)CCc1c-2[nH]c2ccccc12 [dehydroevodiamine] | 10 | 100 | nearly comparable | 15.35 | 1.87 | ≤ 15 | 45 | 15 | 107 | 15 | high permeability |  | 
